We go through eight compounds from patent US20240400536A1, “IDEBENONE DERIVATIVES AND THEIR USE IN TREATING PLANTS” (MITORX THERAPEUTICS LIMITED, priority 2021, published 2024).

In one data set the test system is endothelial cells. To be noted: cited from earlier work.
Data set [1] relates to b.End3 cells. As to the kind of experiment: Hyperglycaemia-induced mitochondrial dysfunction: mitochondrial membrane potential restore. In kind it is cell-based. To be noted: compound added on day 8 for two days. On the procedure:
Moreover, in cardiovascular diseases such as hypertension and diabetes a loss of endothelial function and cell death were observed [Poredos et al, 2021].
In order to induce hyperglycemia in b.End3 cells, a literature reported protocol Lorenzi et al 1985; Qu et al 2014] was followed. After trypsinisation, cells were diluted with supplemented DMEM (approximately 2 ml per flask) and consequently, cells from 3 or 4 different flasks were transferred in a 15 ml sterile conical centrifuge tube and centrifuged for 5 minutes, in order to separate the cells from the medium. Following that, the supernatant medium was removed and the cells were gently re-suspended and mixed with approximately 4 ml of fresh supplemented DMEM. 20 μl of this solution was added to 40 μl of trypan blue and 10 μl of the final solution was loaded onto a cell counting slide dual-chamber. Trypan blue allows to distinguish between live and dead cells. Indeed it is impermeable in live cells, while it is absorbed by dead cells. The number of cells per ml was measured using an automated cell counter. Commonly, the value found was […] and consequently, the cell solution was diluted, in order to obtain a concentration of 20,000 cells/well in the minimum volume necessary to fill a 96-well plate (200 μl/well, ≈13 ml for one plate, since the two external columns and rows were loaded with cell-free medium because they are susceptible to evaporation thus, the cell medium in these wells prevented the external cell-containing wells from evaporating). Cells were cultured overnight in a humidified incubator, in order to allow them to attach to the plate surface. Afterwards, the medium was removed (a part of the plate was kept with normal glucose DMEM as a […]) and supplemented high-glucose DMEM was added. Cells were cultured for 8 days since, in previous studies, it was determined that this is the minimum amount of time required to induce extensive mitochondrial dysfunction, such as excessive oxidant production and mitochondrial membrane hyperpolarisation Lorenzi et al 1985; Qu et al 2014]
On day 8, 10 μl/well (1/20 dilution factor) of a solution of an H2S donor or of a control compound or a PBS vehicle solution (with calcium and magnesium salts and 10% DMSO) was administered to cells. The final concentration of DMSO in cells was 0.5%: higher DMSO doses may be toxic for the cells. The cells were incubated for a further two days in the presence of the compound and after ten days of hyperglycaemia exposure, the amount of mitochondrial oxidant and mitochondrial membrane hyperpolarisation were determined. Noticeably in this procedure, in order to evaluate the cytoprotective activity of the novel compounds, the drugs were added only after the mitochondrial dysfunction in cells had already occurred. The protocol described is summarised in the scheme below:
On day 0, cells (20,000 cell/ml) were plated in a 96-well plate. Cells were cultured overnight at 37° C. On day 1, supplemented DMEM was removed and high-glucose supplemented DMEM was added. On day 8, an H2S donor compound (Examples 1-7), a control compound or altematively a vehicle solution was added to cells. On day 10, mitochondrial dysfunction were determined Lorenzi et al 1985; Qu et al 2014].

For data set [2] the following is noted: cited from earlier work.
Data set [3] relates to b.End3 cells. The experiment in a line: Toxicity (TC50). In kind it is cell-based.
The subject of data set [4] is b.End3 cells. The experiment in a line: Hyperglycaemia-induced mitochondrial dysfunction: mitochondrial superoxide (ROS) production, Mitosox Red. To be noted: 10 days hyperglycaemia, compound added on day 8 for two days. The data set is classed as cell-based. As to the method:
In order to induce hyperglycemia in b.End3 cells, a literature reported protocol Lorenzi et al 1985; Qu et al 2014] was followed. After trypsinisation, cells were diluted with supplemented DMEM (approximately 2 ml per flask) and consequently, cells from 3 or 4 different flasks were transferred in a 15 ml sterile conical centrifuge tube and centrifuged for 5 minutes, in order to separate the cells from the medium. Following that, the supernatant medium was removed and the cells were gently re-suspended and mixed with approximately 4 ml of fresh supplemented DMEM. 20 μl of this solution was added to 40 μl of trypan blue and 10 μl of the final solution was loaded onto a cell counting slide dual-chamber. Trypan blue allows to distinguish between live and dead cells. Indeed it is impermeable in live cells, while it is absorbed by dead cells. The number of cells per ml was measured using an automated cell counter. […] Cells were cultured for 8 days since, in previous studies, it was determined that this is the minimum amount of time required to induce extensive mitochondrial dysfunction, such as excessive oxidant production and mitochondrial membrane hyperpolarisation Lorenzi et al 1985; Qu et al 2014]
On day 8, 10 μl/well (1/20 dilution factor) of a solution of an H2S donor or of a control compound or a PBS vehicle solution (with calcium and magnesium salts and 10% DMSO) was administered to cells. […] The cells were incubated for a further two days in the presence of the compound and after ten days of hyperglycaemia exposure, the amount of mitochondrial oxidant and mitochondrial membrane hyperpolarisation were determined. […]
On day 0, cells (20,000 cell/ml) were plated in a 96-well plate. […] On day 10, mitochondrial dysfunction were determined Lorenzi et al 1985; Qu et al 2014]. […]

The nature of the next data set: Toxicity (TC50). The data set is classed as cell-based. Conditions: mouse, b.End3 cells.
Another data set concerns C. elegans. The experiment in a line: Worm screening: mitochondrial network imaging in ageing C. elegans. The data set is classed as in vivo. Conditions: for reduction of networked mitochondria caused by aging: FIG. 2; for damage caused to mitochondrial network in aging: FIG. 3. As to the method:
C. elegans strains were cultured at 20° C. on Petri dishes containing nematode growth medium (NGM) agar and a lawn of Escherichia coli OP50, unless stated otherwise. Animals for the study were age-synchronized by gravity synchronization from the L1 stage and allowed to grow to the desired day of adulthood. The C. elegans strains used in this study were Bristol strain N2 (WT) provided by the Caenorhabditis Genetics Center.
Mitochondrial imaging was used in day 1 adults, with or without treatment, to examine the mitochondrial network. Worms were cultured on test compounds as described. Approximately 20 day 1 adults were picked into 20 μL of M9 buffer on a microscope slide with a coverslip applied. Worms were imaged at 40× magnification using a Nikon Eclipse 50i microscope. The protocol used was as described by Oh and Kim. Briefly animals were assessed at day 4 and day 8 of adulthood, where the number of dead muscle cells was determined by quantifying the number of muscle cells that had lost their distinct circular nuclear GFP signal. Approximately 30 animals were picked into 20 μL of M9 buffer on a microscope slide with a coverslip applied. Worms were imaged at 10× magnification by using a Nikon Eclipse 50i microscope.

In data set [5] the test system is senescent primary human lung fibroblasts. As to the kind of experiment: Cellular bioenergetics (Seahorse OCR) in senescent primary human lung fibroblasts. In kind it is cell-based. Conditions: FIG. 4; compounds 0-300 nM; compared to the control (SIP cells without compound). As to the method: Human primary lung fibroblasts were isolated from healthy volunteers and cultured in DMEM supplemented with 10% fetal calf serum and 1% pen/strep and […] L-glutamine, at 37° C., 5% CO2. To induce senescence, cells were seeded at a density of 50,000 cells per well in 250 μl of cell culture media onto Seahorse V7 plates and treated daily with fresh cell culture media containing […] H2O2 for 5 days, cells were then cultured with normal medium for a further 9 days. Senescence was confirmed by microscopy and staining for the senescence marker, senescence-associated-β-galactosidase (SA-βgal; Cell Signalling kit #9860). Cells were then treated with compounds (0-300 nM) for a further 24 h (controls are *SIP cells without compounds) and after this time, cellular bioenergetics determined using a Seahorse XFe24 extracellular flux analyser performed as described below. * SIP-senescence-induced phenotype
For the mitochondrial stress and glycolytic stress tests (Agilent, UK)Seahorse XFe24 sensor cartridges were hydrated with Seahorse XF calibrant solution and maintained at 37° C. in a non-CO2 incubator overnight. […] After incubation, plates were loaded onto Seahorse XFe24 Analyser and basal oxygen consumption rate (OCR) measured for 3 cycles. […] Extracellular acidification rate (ECAR) and Oxygen consumption rate (OCR) were measured for 3 baseline cycles and injection strategy initiated. […]

`O=C(CCCCCCCCC[P+](c1ccccc1)(c1ccccc1)c1ccccc1)Oc1ccc(-c2cc(=S)ss2)cc1.[Br-]` [AP39]: the ATP production result in the data set on endothelial cells (endothelial cells) is reported as “increase”. Besides, in the data set with endothelial cells (inside the mitochondria), the protein persulfidation entry was “increase”. Further, in the data set on endothelial cells (mainly inside the mitochondria, concentration-dependent), the “intracellular levels of H2S” value is recorded as “increase”. In addition, the IC50 in the data set with b.End3 cells [1] (10 days hyperglycaemia) stood at 4 nM. The aqueous solubility entry in data set [2] is “poor”. For the same compound, the midpoint of cytotoxicity with b.End3 cells [3], the CC50, lay at 8000 nM. For the same compound, the “IC25 (Mitochondrial ROS level restore)” value with b.End3 cells [4] was 10 nM.

As to `COC1=C(OC)C(=O)C(CCCCCCCCCCOC(=O)COc2ccc(-c3cc(=S)ss3)cc2)=C(C)C1=O` [Example 1, 10-(4,5-dimethoxy-2-methyl-3,6-dioxocyclohexa-1,4-dien-1-yl)decyl 2-[4-(3-sulfanylidene-3H-1,2-dithiol-5-yl)phenoxy]acetate], the IC50 with b.End3 cells [1] (BEND3, 10 days hyperglycaemia) was 0.4 nM. In addition, the midpoint of cytotoxicity in “Toxicity (TC50)”, the CC50, lay at 147000 nM. Also, the “IC25 (Mitochondrial ROS level restore)” value with b.End3 cells [4] worked out at 6.5 nM.

For the compound “4-(3-sulfanylidene-3H-1,2- dithiol-5-yl)phenyl) 10-(4,5-dimethoxy-2- methyl-2,6-dioxocyclohexa- 1,4-dien-1-yl)decanoate [Example 2]”, the IC50 in the data set on b.End3 cells [1] (10 days hyperglycaemia) is 6 nM. Besides, the “fragmentation of the mitochondrial network caused by ageing” value in the data set with C. elegans (FIG. 1) is “inhibited”. Besides, in the data set with C. elegans, the “reduction of networked mitochondria caused by aging” value (shortened to “reduction”) is recorded as “preserved” and the “damage caused to mitochondrial network in aging” value (shortened to “damage caused”) is “can be inhibited”. For the same compound, in the data set with b.End3 cells [3], the CC50 was determined as 130000 nM. The “IC25 (Mitochondrial ROS level restore)” value with b.End3 cells [4] came out at 10 nM.

Regarding `Oc1ccc(-c2cc(=S)ss2)cc1` [ADTOH, 5-(4-hydroxyphenyl) -3H-1,2-dithiole-3-thione], in the data set with C. elegans, the “reduction” value is given as “not” and the “damage caused” value is recorded as “not”.

`COC1=C(OC)C(=O)C(CCCCCCCCCC(=O)Oc2ccc(-c3cc(=O)ss3)cc2)=C(C)C1=O` [Example 3, 4-(3-oxo-3H-1,2-dithiol-5-yl)phenyl 10-(4,5-dimethoxy-2-methyl-3,6-dioxocyclohexa-1,4-dien-1-yl)decanonate] had an IC50 in the data set with b.End3 cells [1] (BEND3, 10 days hyperglycaemia) of 5 nM. In the data set “Toxicity (TC50)”, this compound yielded a CC50 of 76000 nM.

As for `COC1=C(OC)C(=O)C(CCCCCCCCCC(=O)Oc2ccc(C(N)=S)cc2)=C(C)C1=O` [Example 4, 4-carbamothioylphenyl 10-(4,5-dimethoxy-2-methyl-3,6-dioxocyclohexa-1,4-dien-1-yl)decanoate], the IC50 in the data set on b.End3 cells [1] (BEND3, 10 days hyperglycaemia) worked out at 1 nM. The same compound displayed a CC50 in “Toxicity (TC50)” of 100000 nM.

Consider `COC1=C(OC)C(=O)C(CCCCCCCCCCO)=C(C)C1=O` [idebenone], for which, in the data set on C. elegans, the “reduction” value is listed as “not” and the “damage caused” value was “not”.

As to `CC1=C(CCCCCCCCCC(=O)Nc2ccc(C(N)=S)cc2)C(=O)c2ccccc2C1=O` [Example 17, N-(4-carbamothioylphenyl)-10-(3-methyl-1,4-dioxo-1,4-dihydronaphthalen-2-yl)decanamide], in data set [5], the “dysfunction of the mitochondria (loss of OCR) in senescent cells” value is “reversed”.
